Test results from ChEMBL document CHEMBL3885861, “Open TG-GATES”.

Organism: Rattus norvegicus
Assay: Open TG-GATES - Regimen: Daily Repeat
Type: toxicity, organism-based, Sprague-Dawley
Parameters: regimen Daily Repeat, gender Male, age 6 weeks
Details: in vivo, po, 100 mg/kg, route gavage, dose level Low; for APTT / Bas / Eos / Fbg / Hb / Ht / Lym / MCH / MCHC / MCV / Mono / Neu / PT / Plat / RBC / Ret / WBC: tissue Blood; for KIDNEY_L / KIDNEY_R / KIDNEY_TOTAL: tissue Kidney; for LIVER: tissue Liver; for A/G / ALP / ALT / AST / BUN / CRE / Ca / Cl / DBIL / GLC / IP / K / LDH / Na / PL / RALB / TBIL / TC / TG / TP / gamma-GTP: tissue Plasma

With `COC1=CC(=O)C[C@@H](C)[C@]12Oc1c(Cl)c(OC)cc(OC)c1C2=O` [GRISEOFULVIN] the TERMINAL_BW (72 h, time 3 day) was 226.6 g, the APTT (72 h, time 3 day) was 19.6 s and the Bas (72 h, time 3 day) was 0%. The Eos (72 h, time 3 day) was 1%, the Fbg (72 h, time 3 day) was 220 mg/dL and the Hb (72 h, time 3 day) was 13.2 g/dL. It also gave a Ht (72 h, time 3 day) of 39.1%, a Lym (72 h, time 3 day) of 79.6% and an MCH (72 h, time 3 day) of 22.1 pg. The MCHC (72 h, time 3 day) was 33.8%, the MCV (72 h, time 3 day) was 65.4 fL and the Mono (72 h, time 3 day) was 2.4%. For the same compound, the Neu (72 h, time 3 day) was 16.4%, the PT (72 h, time 3 day) was 12.6 s and the Plat (72 h, time 3 day) was 116.4 x10_4/uL. The RBC (72 h, time 3 day) was 599.4 x10_4/ul, the Ret (72 h, time 3 day) was 7.5% and the WBC (72 h, time 3 day) was 97.1 x10_2/uL. For the same compound, the KIDNEY_L (72 h, time 3 day) was 1 g, the KIDNEY_R (72 h, time 3 day) was 1 g and the KIDNEY_TOTAL (72 h, time 3 day) was 2 g. It also gave an LIVER (72 h, time 3 day) of 11.2 g, an A/G (72 h, time 3 day) of 1.6 and an ALP (72 h, time 3 day) of 947.8 IU/L. The ALT (72 h, time 3 day) was 35.8 IU/L, the AST (72 h, time 3 day) was 63 IU/L and the BUN (72 h, time 3 day) was 14.6 mg/dL. It also gave a CRE (72 h, time 3 day) of 0.4 mg/dL, a Ca (72 h, time 3 day) of 10.8 mg/dL and a Cl (72 h, time 3 day) of 103.8 meq/L. For the same compound, the DBIL (72 h, time 3 day) was 0.086 mg/dL, the GLC (72 h, time 3 day) was 213.6 mg/dL and the IP (72 h, time 3 day) was 7.9 mg/dL. For the same compound, the K (72 h, time 3 day) was 3.9 meq/L, the LDH (72 h, time 3 day) was 158.2 IU/L and the Na (72 h, time 3 day) was 140.8 meq/L. For the same compound, the PL (72 h, time 3 day) was 146 mg/dL, the RALB (72 h, time 3 day) was 3.4 g/dL and the TBIL (72 h, time 3 day) was 0.1 mg/dL. For the same compound, the TC (72 h, time 3 day) was 80.6 mg/dL, the TG (72 h, time 3 day) was 62.8 mg/dL and the TP (72 h, time 3 day) was 5.5 g/dL. It also gave a gamma-GTP (72 h, time 3 day) of 1.2 IU/L, a TERMINAL_BW ([…], time 7 day) of 262.3 g and a TERMINAL_BW ([…], time 14 day) of 308.3 g. The TERMINAL_BW ([…], time 28 day) was 393.4 g, the APTT ([…], time 7 day) was 19.8 s and the Bas ([…], time 7 day) was 0%. The Eos ([…], time 7 day) was 1%, the Fbg ([…], time 7 day) was 229.4 mg/dL and the Hb ([…], time 7 day) was 13.6 g/dL. It also gave a Ht ([…], time 7 day) of 40.4%, a Lym ([…], time 7 day) of 80.4% and an MCH ([…], time 7 day) of 21.3 pg. It also gave an MCHC ([…], time 7 day) of 33.8%, an MCV ([…], time 7 day) of 63 fL and a Mono ([…], time 7 day) of 2.2%. It also gave a Neu ([…], time 7 day) of 16%, a PT ([…], time 7 day) of 12.2 s and a Plat ([…], time 7 day) of 141.9 x10_4/uL. The RBC ([…], time 7 day) was 641.4 x10_4/ul, the Ret ([…], time 7 day) was 5.7% and the WBC ([…], time 7 day) was 131.1 x10_2/uL. It also gave an APTT ([…], time 14 day) of 20.1 s, a Bas ([…], time 14 day) of 0% and an Eos ([…], time 14 day) of 1%. It also gave a Fbg ([…], time 14 day) of 225.6 mg/dL, a Hb ([…], time 14 day) of 14.2 g/dL and a Ht ([…], time 14 day) of 42.2%. For the same compound, the Lym ([…], time 14 day) was 78%, the MCH ([…], time 14 day) was 20.4 pg and the MCHC ([…], time 14 day) was 33.7%. For the same compound, the MCV ([…], time 14 day) was 60.6 fL, the Mono ([…], time 14 day) was 3.2% and the Neu ([…], time 14 day) was 17.2%. The PT ([…], time 14 day) was 12.3 s, the Plat ([…], time 14 day) was 129.7 x10_4/uL and the RBC ([…], time 14 day) was 696.2 x10_4/ul. For the same compound, the Ret ([…], time 14 day) was 2.8%, the WBC ([…], time 14 day) was 131.1 x10_2/uL and the APTT ([…], time 28 day) was 21.2 s. The Bas ([…], time 28 day) was 0%, the Eos ([…], time 28 day) was 1% and the Fbg ([…], time 28 day) was 219.6 mg/dL. It also gave a Hb ([…], time 28 day) of 15 g/dL, a Ht ([…], time 28 day) of 44.1% and a Lym ([…], time 28 day) of 81.8%. It also gave an MCH ([…], time 28 day) of 19.5 pg, an MCHC ([…], time 28 day) of 34% and an MCV ([…], time 28 day) of 57.2 fL. It also gave a Mono ([…], time 28 day) of 2.2%, a Neu ([…], time 28 day) of 14.8% and a PT ([…], time 28 day) of 12.5 s. It also gave a Plat ([…], time 28 day) of 121.1 x10_4/uL, an RBC ([…], time 28 day) of 772 x10_4/ul and a Ret ([…], time 28 day) of 2.7%. The WBC ([…], time 28 day) was 138.9 x10_2/uL, the KIDNEY_L ([…], time 7 day) was 1.1 g and the KIDNEY_R ([…], time 7 day) was 1.1 g. For the same compound, the KIDNEY_TOTAL ([…], time 7 day) was 2.3 g, the KIDNEY_L ([…], time 14 day) was 1.2 g and the KIDNEY_R ([…], time 14 day) was 1.2 g. For the same compound, the KIDNEY_TOTAL ([…], time 14 day) was 2.4 g, the KIDNEY_L ([…], time 28 day) was 1.4 g and the KIDNEY_R ([…], time 28 day) was 1.4 g. The KIDNEY_TOTAL ([…], time 28 day) was 2.9 g, the LIVER ([…], time 7 day) was 12.7 g and the LIVER ([…], time 14 day) was 13.7 g. It also gave an LIVER ([…], time 28 day) of 16.7 g, an A/G ([…], time 7 day) of 1.5 and an ALP ([…], time 7 day) of 865.8 IU/L. The ALT ([…], time 7 day) was 36.2 IU/L, the AST ([…], time 7 day) was 62.2 IU/L and the BUN ([…], time 7 day) was 15.4 mg/dL. It also gave a CRE ([…], time 7 day) of 0.4 mg/dL, a Ca ([…], time 7 day) of 10.7 mg/dL and a Cl ([…], time 7 day) of 103.8 meq/L. The DBIL ([…], time 7 day) was 0.08 mg/dL, the GLC ([…], time 7 day) was 206.2 mg/dL and the IP ([…], time 7 day) was 7.1 mg/dL. It also gave a K ([…], time 7 day) of 3.8 meq/L, an LDH ([…], time 7 day) of 162.6 IU/L and a Na ([…], time 7 day) of 142 meq/L. It also gave a PL ([…], time 7 day) of 135.2 mg/dL, an RALB ([…], time 7 day) of 3.4 g/dL and a TBIL ([…], time 7 day) of 0.1 mg/dL. The TC ([…], time 7 day) was 75.4 mg/dL, the TG ([…], time 7 day) was 75 mg/dL and the TP ([…], time 7 day) was 5.7 g/dL. For the same compound, the gamma-GTP ([…], time 7 day) was 1 IU/L, the A/G ([…], time 14 day) was 1.5 and the ALP ([…], time 14 day) was 701.8 IU/L. For the same compound, the ALT ([…], time 14 day) was 35.2 IU/L, the AST ([…], time 14 day) was 57.4 IU/L and the BUN ([…], time 14 day) was 15.2 mg/dL. For the same compound, the CRE ([…], time 14 day) was 0.5 mg/dL, the Ca ([…], time 14 day) was 10.6 mg/dL and the Cl ([…], time 14 day) was 103.2 meq/L. It also gave a DBIL ([…], time 14 day) of 0.1 mg/dL, a GLC ([…], time 14 day) of 215.2 mg/dL and an IP ([…], time 14 day) of 7.4 mg/dL. It also gave a K ([…], time 14 day) of 4.1 meq/L, an LDH ([…], time 14 day) of 171.8 IU/L and a Na ([…], time 14 day) of 140.6 meq/L. It also gave a PL ([…], time 14 day) of 138.8 mg/dL, an RALB ([…], time 14 day) of 3.5 g/dL and a TBIL ([…], time 14 day) of 0.2 mg/dL. The TC ([…], time 14 day) was 72.6 mg/dL, the TG ([…], time 14 day) was 92.4 mg/dL and the TP ([…], time 14 day) was 5.8 g/dL. The gamma-GTP ([…], time 14 day) was 1 IU/L, the A/G ([…], time 28 day) was 1.3 and the ALP ([…], time 28 day) was 684.6 IU/L. The ALT ([…], time 28 day) was 31 IU/L, the AST ([…], time 28 day) was 55.8 IU/L and the BUN ([…], time 28 day) was 16 mg/dL. It also gave a CRE ([…], time 28 day) of 0.5 mg/dL, a Ca ([…], time 28 day) of 10.3 mg/dL and a Cl ([…], time 28 day) of 104.2 meq/L. The DBIL ([…], time 28 day) was 0.086 mg/dL, the GLC ([…], time 28 day) was 235.8 mg/dL and the IP ([…], time 28 day) was 6.4 mg/dL. For the same compound, the K ([…], time 28 day) was 3.5 meq/L, the LDH ([…], time 28 day) was 162.2 IU/L and the Na ([…], time 28 day) was 141.4 meq/L. The PL ([…], time 28 day) was 120.4 mg/dL, the RALB ([…], time 28 day) was 3.4 g/dL and the TBIL ([…], time 28 day) was 0.1 mg/dL. The TC ([…], time 28 day) was 66.2 mg/dL, the TG ([…], time 28 day) was 82 mg/dL and the TP ([…], time 28 day) was 6 g/dL. It also gave a gamma-GTP ([…], time 28 day) of 0.8 IU/L.
